# Measurements from ChEMBL document CHEMBL1201862, “PubChem BioAssay data set” (2004).
#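 Tested at 5 concentrations; 48 h exposure; 96-well plates; endpoints linearly interpolated, else capped at highest concentration. Here, GI50 denotes the concentration required for 50% inhibition of growth.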 Activity calls are given as the source filed them. Cut-off read from the data, not from the text of the source: active = GI50 up to about 1.1 µM and inactive = higher.
# Columns and labels:
# Experiment in all cases: NCI tumour cell line growth inhibition, 48 h
# 786-0 = test system: 786-0
# A498 = test system: A498
# A549 = test system: A549
# ACHN = test system: ACHN
# BT-549 = test system: BT-549
# CCRF-CEM = test system: CCRF-CEM
# COLO 205 = test system: COLO 205
# DU-145 = test system: DU-145
# EKVX = test system: EKVX
# HCC 2998 = test system: HCC 2998
# HCT-116 = test system: HCT-116
# HCT-15 = test system: HCT-15
# HL-60 = test system: HL-60
# HOP-62 = test system: HOP-62
# HT-29 = test system: HT-29
# Hs-578T = test system: Hs-578T
# IGROV-1 = test system: IGROV-1
# K562 = test system: K562
# KM12 = test system: KM12
# LOX IMVI = test system: LOX IMVI
# M14 = test system: M14
# MCF7 = test system: MCF7
# MDA-MB-231 = test system: MDA-MB-231
# MDA-MB-435 = test system: MDA-MB-435
# MDA-N = test system: MDA-N
# MOLT-4 = test system: MOLT-4
# Malme-3M = test system: Malme-3M
# NCI-H226 = test system: NCI-H226
# NCI-H23 = test system: NCI-H23
# NCI-H460 = test system: NCI-H460
# NCI-H522 = test system: NCI-H522
# NCI/ADR-RES = test system: NCI/ADR-RES
# OVCAR-3 = test system: OVCAR-3
# OVCAR-4 = test system: OVCAR-4
# OVCAR-5 = test system: OVCAR-5
# OVCAR-8 = test system: OVCAR-8
# PC-3 = test system: PC-3
# RPMI-8226 = test system: RPMI-8226
# RXF 393 = test system: RXF 393
# SF-268 = test system: SF-268
# SF-295 = test system: SF-295
# SF-539 = test system: SF-539
# SK-MEL-28 = test system: SK-MEL-28
# SK-MEL-2 = test system: SK-MEL-2
# SK-MEL-5 = test system: SK-MEL-5
# SK-OV-3 = test system: SK-OV-3
# SN12C = test system: SN12C
# SNB-19 = test system: SNB-19
# SNB-75 = test system: SNB-75
# SR = test system: SR
# SW-620 = test system: SW-620
# TK-10 = test system: TK-10
# U-251 = test system: U-251
# UACC-257 = test system: UACC-257
# UACC-62 = test system: UACC-62
# UO-31 = test system: UO-31
# CAKI-1 = test system: CAKI-1
# HOP-92 = test system: HOP-92
compound,measurement,setting,value
O=C(CCCN1CCC(Nc2ccc(F)cc2)(c2nnnn2C2CCCCC2)CC1)c1ccc(F)cc1,GI50,786-0,17.8 µM (inactive)
same,GI50,A498,3.79 µM (inactive)
same,GI50,A549,13.1 µM (inactive)
same,GI50,ACHN,10.6 µM (inactive)
same,GI50,BT-549,16.5 µM (inactive)
same,GI50,CCRF-CEM,7.1 µM (inactive)
same,GI50,COLO 205,14.3 µM (inactive)
same,GI50,DU-145,14.5 µM (inactive)
same,GI50,EKVX,15.9 µM (inactive)
same,GI50,HCC 2998,16.3 µM (inactive)
same,GI50,HCT-116,13.2 µM (inactive)
same,GI50,HCT-15,15.2 µM
same,GI50,HL-60,6.52 µM (inactive)
same,GI50,HOP-62,16.9 µM (inactive)
same,GI50,HT-29,8.57 µM (inactive)
same,GI50,Hs-578T,18.5 µM (inactive)
same,GI50,IGROV-1,3.69 µM (inactive)
same,GI50,K562,3.98 µM (inactive)
same,GI50,KM12,3.52 µM (inactive)
same,GI50,LOX IMVI,19.4 µM (inactive)
same,GI50,M14,16.7 µM (inactive)
same,GI50,MCF7,17.8 µM (inactive)
same,GI50,MDA-MB-231,16.6 µM (inactive)
same,GI50,MDA-MB-435,16.7 µM (inactive)
same,GI50,MDA-N,15.5 µM (inactive)
same,GI50,MOLT-4,5.27 µM (inactive)
same,GI50,Malme-3M,29.2 µM (inactive)
same,GI50,NCI-H226,17.2 µM (inactive)
same,GI50,NCI-H23,14.5 µM (inactive)
same,GI50,NCI-H460,11.6 µM (inactive)
same,GI50,NCI-H522,16.3 µM (inactive)
same,GI50,NCI/ADR-RES,16.3 µM (inactive)
same,GI50,OVCAR-3,14.8 µM (inactive)
same,GI50,OVCAR-4,12.9 µM (inactive)
same,GI50,OVCAR-5,15.7 µM (inactive)
same,GI50,OVCAR-8,23.6 µM (inactive)
same,GI50,PC-3,13.1 µM (inactive)
same,GI50,RPMI-8226,5.42 µM (inactive)
same,GI50,RXF 393,12.6 µM (inactive)
same,GI50,SF-268,12.8 µM (inactive)
same,GI50,SF-295,18.3 µM (inactive)
same,GI50,SF-539,12.6 µM (inactive)
same,GI50,SK-MEL-28,16.2 µM (inactive)
same,GI50,SK-MEL-2,16.3 µM (inactive)
same,GI50,SK-MEL-5,20.7 µM (inactive)
same,GI50,SK-OV-3,3.39 µM (inactive)
same,GI50,SN12C,31.5 µM (inactive)
same,GI50,SNB-19,15.6 µM (inactive)
same,GI50,SNB-75,11.2 µM (inactive)
same,GI50,SR,11.7 µM (inactive)
same,GI50,SW-620,22.5 µM (inactive)
same,GI50,TK-10,15.3 µM (inactive)
same,GI50,U-251,15.3 µM (inactive)
same,GI50,UACC-257,21.3 µM (inactive)
same,GI50,UACC-62,3.3 µM (inactive)
same,GI50,UO-31,14.1 µM (inactive)
COC(C)(C)C1(O)CCC(C)CC1=O (configuration not stated),GI50,786-0,> 100 µM (inactive)
same,GI50,BT-549,> 100 µM (inactive)
same,GI50,CAKI-1,> 100 µM (inactive)
same,GI50,COLO 205,> 100 µM (inactive)
same,GI50,HCC 2998,> 100 µM (inactive)
same,GI50,HL-60,85.7 µM (inactive)
same,GI50,HOP-92,> 100 µM (inactive)
same,GI50,HT-29,> 100 µM (inactive)
same,GI50,Hs-578T,> 100 µM (inactive)
same,GI50,IGROV-1,> 100 µM (inactive)
same,GI50,MDA-N,> 100 µM (inactive)
same,GI50,MOLT-4,> 100 µM (inactive)
same,GI50,NCI-H460,> 100 µM (inactive)
same,GI50,OVCAR-3,> 100 µM (inactive)
same,GI50,OVCAR-8,> 100 µM (inactive)
same,GI50,PC-3,> 100 µM (inactive)
same,GI50,RXF 393,> 100 µM (inactive)
same,GI50,SK-MEL-5,> 100 µM (inactive)
same,GI50,SK-OV-3,> 100 µM (inactive)
same,GI50,SNB-19,> 100 µM (inactive)
same,GI50,SR,> 100 µM (inactive)
same,GI50,U-251,> 100 µM (inactive)
same,GI50,UO-31,> 100 µM (inactive)
CC(C)(C)n1c(=O)n(-c2ccccc2)n(C(C)(C)C)c1=O,GI50,786-0,> 100 µM (inactive)
same,GI50,A498,> 100 µM (inactive)
same,GI50,A549,> 100 µM (inactive)
same,GI50,ACHN,> 100 µM (inactive)
same,GI50,BT-549,> 100 µM (inactive)
same,GI50,CAKI-1,> 100 µM (inactive)
same,GI50,CCRF-CEM,> 100 µM (inactive)
same,GI50,COLO 205,> 100 µM (inactive)
same,GI50,EKVX,> 100 µM (inactive)
same,GI50,HCC 2998,> 100 µM (inactive)
same,GI50,HCT-116,> 100 µM (inactive)
same,GI50,HCT-15,> 100 µM
same,GI50,HL-60,> 100 µM (inactive)
same,GI50,HOP-62,> 100 µM (inactive)
same,GI50,HOP-92,> 100 µM (inactive)
same,GI50,HT-29,> 100 µM (inactive)
same,GI50,Hs-578T,> 100 µM (inactive)
same,GI50,IGROV-1,> 100 µM (inactive)
same,GI50,K562,> 100 µM (inactive)
same,GI50,KM12,> 100 µM (inactive)
same,GI50,LOX IMVI,> 100 µM (inactive)
same,GI50,M14,> 100 µM (inactive)
same,GI50,MCF7,> 100 µM (inactive)
same,GI50,MDA-MB-231,> 100 µM (inactive)
same,GI50,MDA-N,> 100 µM (inactive)
same,GI50,MOLT-4,> 100 µM (inactive)
same,GI50,Malme-3M,> 100 µM (inactive)
same,GI50,NCI-H226,> 100 µM (inactive)
same,GI50,NCI-H23,> 100 µM (inactive)
same,GI50,NCI-H460,> 100 µM (inactive)
same,GI50,NCI/ADR-RES,> 100 µM (inactive)
same,GI50,OVCAR-3,> 100 µM (inactive)
same,GI50,OVCAR-4,> 100 µM (inactive)
same,GI50,OVCAR-5,> 100 µM (inactive)
same,GI50,OVCAR-8,> 100 µM (inactive)
same,GI50,PC-3,> 100 µM (inactive)
same,GI50,RXF 393,> 100 µM (inactive)
same,GI50,SF-295,> 100 µM (inactive)
same,GI50,SF-539,> 100 µM (inactive)
same,GI50,SK-MEL-28,> 100 µM (inactive)
same,GI50,SK-MEL-2,> 100 µM (inactive)
same,GI50,SK-MEL-5,> 100 µM (inactive)
same,GI50,SK-OV-3,> 100 µM (inactive)
same,GI50,SN12C,> 100 µM (inactive)
same,GI50,SNB-19,> 100 µM (inactive)
same,GI50,SNB-75,63.1 µM (inactive)
same,GI50,SR,> 100 µM (inactive)
same,GI50,SW-620,> 100 µM (inactive)
same,GI50,TK-10,> 100 µM (inactive)
same,GI50,U-251,> 100 µM (inactive)
same,GI50,UACC-257,> 100 µM (inactive)
same,GI50,UACC-62,> 100 µM (inactive)
same,GI50,UO-31,> 100 µM (inactive)
